# Results: patent US10409869B2, “(R)- and (S)-1-(3-(3-N,N-dimethylaminocarbonyl)phenoxyl-4-nitrophenyl)-1-ethyl-N,N'-bis (ethylene)phosphoramidate, compositions and methods for their use and preparation” (OBI Pharma, Inc., priority 2015, dated 2019)
# Columns and labels:
# AKR1C3 [1] = molecular target: T1, AKR1C3 (Homo sapiens, UniProt P42330); assay: Activation by the aldoketo reductase AKR1C3, LC/MS/MS of % remaining; assay type: biochemical; settings: 5 μM, 25 μg/mL AKR1C3, 2 mM NADPH, 37° C., up to 120 min, FIG. 2
# T1 sequence (P42330 1-323): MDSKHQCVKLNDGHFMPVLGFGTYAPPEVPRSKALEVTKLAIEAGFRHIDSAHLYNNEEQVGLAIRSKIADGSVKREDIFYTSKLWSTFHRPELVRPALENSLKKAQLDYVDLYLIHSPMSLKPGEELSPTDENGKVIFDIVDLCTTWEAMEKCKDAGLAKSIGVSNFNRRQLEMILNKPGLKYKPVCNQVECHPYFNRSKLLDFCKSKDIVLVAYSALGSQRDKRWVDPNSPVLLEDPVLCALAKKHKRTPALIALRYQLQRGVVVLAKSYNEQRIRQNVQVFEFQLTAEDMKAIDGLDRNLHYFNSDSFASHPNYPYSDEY
# Experimental: Recombinant human AKR1C3 was diluted to 25 μg/mL in phosphate buffered saline (PBS), pH 7.4 (37° C.), containing 2 mM NADPH. TH2870 or progesterone (positive control) in 30% methanol/70% water was added to the reaction mixture at a final concentration of 5 μM and incubated at 37° C. for 120 minutes. At various times up to 120 min, 50 μL of the reaction mixture was taken and 200 μL acetonitrile containing propranolol as internal standard was added, vortex-mixed and centrifuged for 10 min. The resulting supernatant (5 μL) was injected into a LC/MS/MS for quantitation of % remaining TH 2870 and progesterone. The compounds were tested in duplicates.
# [2] = human, in vivo; cited from earlier work
# AKR1C3 [3] = molecular target: T1, AKR1C3; settings: cited from earlier work
# [4] = tested on: HepG2-GFP human hepatocellular carcinoma; assay: Orthotopic HepG2-GFP human hepatocellular carcinoma mouse model, tumor burden; assay type: in vivo, nude mice
# Experimental: Female athymic nude mice (6 weeks of age) were used in this study. The animals were purchased from Beijing HFK Bioscience, Co., Ltd and maintained in a High Efficiency Particulate Air Filter (HEPA) filtered environment with cages, food, and bedding sterilized by irradiation or autoclaving. A total of 32 nude mice were used for the study. HepG2-GFP human hepatocellular carcinoma cells (AntiCancer, Inc., San Diego, Calif.) were incubated with RPMI-1640 (Gibco-BRL, Life Technologies, Inc.), which contained 10% FBS. Cells were grown in a CO2 Water Jacketed Incubator (Forma Scientific) maintaining 37° C. and a 5% CO2/95% air atmosphere. Cell viability was determined by trypan blue exclusion analysis. Five female athymic nude mice were injected subcutaneously with a single dose of 5×10^6 HepG2-GFP cells. Tumors were harvested when their size reached 1 cm^3 and the tumor tissues were then cut into small fragments of 1 mm^3. Forty female nude mice were implanted orthotopically with a single piece of tumor fragment, which was derived from a subcutaneous tumor model of HepG2-GFP human hepatocellular carcinoma. The tumor tissue was orthotopically implanted in the right lobe of the liver in each mouse by SOI (Surgical Orthotopic Implantation). […]
# During the period of the study, all of the experimental mice were checked daily for mortality or signs of morbidity. […] The body weights of the mice were measured twice weekly during the study period. […] Comparisons of body weights and tumor burdens in different groups were analyzed using the Student's t-test with an α=0.05 (two-sided). […]
# The progressions of orthotopic HepG2-GFP hepatocellular carcinoma in different groups were monitored by real time imaging. […] Typical tumor images at the end of the study in each group and tumor growth curves derived from the signals of tumor fluorescence, which were analyzed using the Power Station software (INDEC Biosystems, CA, USA), are shown in FIG. 6 and FIG. 7, respectively
# Tumor IR was calculated based on the final average tumor weights according to the formula: IR (%)=(1−treatment(t)/control(c))×100
# [5] = Body weight and toxicity in the orthotopic HepG2-GFP mouse model; assay type: in vivo, nude mice; settings: 30 mg/kg, Qdx35, gavage
compound,measurement,setting,value
"CC(OP(=O)(N1CC1)N1CC1)c1ccc([N+](=O)[O-])c(Oc2cccc(C(=O)N(C)C)c2)c1 (racemic) [TH 2870, (R,S)-1-(3-(3-N,N-dimethylaminocarbonyl)phenoxyl-4-nitrophenyl)-1-ethyl-N,N′-bis(ethylene)phosphoramidate]",disappearance (% remaining) in the presence of AKR1C3,AKR1C3 [1],rapid disappearance
CS(=O)(=O)OCCN(CCBr)c1c(C(=O)NCCOP(=O)(O)O)cc([N+](=O)[O-])cc1[N+](=O)[O-] [PR 104],efficacy in clinical trials,[2],ineffective
same,substrate for AKR1C3,AKR1C3 [3],weak substrate
"CC(=O)[C@H]1CC[C@H]2[C@@H]3CCC4=CC(=O)CC[C@]4(C)[C@H]3CC[C@]12C [Progesterone, reference compound]",disappearance (% remaining) in the presence of AKR1C3,AKR1C3 [1],reduced slowly
"CNC(=O)c1cc(Oc2ccc(NC(=O)Nc3ccc(Cl)c(C(F)(F)F)c3)cc2)ccn1 [Sorafenib, sorafenib]","average tumor size, % less than in the negative control group","[4]; 30 mg/kg, Qdx35, gavage, P=0.0577",about 39%
same,inhibitory effect on orthotopic HepG2-GFP model,[4]; at tested dosages,had inhibitory effect
same,Body Weight Growth Rate,[5],21%
same,"Day 0, Body Weight (mean ± sd)",[5],15.1 ± 1.1 g
same,"Day 35, Body Weight (mean ± sd)",[5],18.2 ± 0.8 g
same,toxicity to the experimental mice,[5]; body weight lower than negative control,a certain degree of toxicity
